According to PubChem BioAssay (NCI):
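Growth conditions: 96-well plates. Treatment: test compound, 48 hours, 5 concentrations. Analysis: linear interpolation between bracketing concentrations; unreached endpoints set to highest concentration. The concentration for full growth arrest is given as TGI.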 Where a SMILES comes first, the peptide text is derived from it. The star is where a group is joined. Fmoc = O=C(OCC1c2ccccc2-c2ccccc21)*; OtBu = CC(C)(C)O*

Legend:
Test in all cases: NCI-60 cell line screen, 48 h
IGROV1 ovarian = system: IGROV1 ovarian
CAKI-1 renal = system: CAKI-1 renal
MCF7 breast = system: MCF7 breast
MDA-MB-435 = system: MDA-MB-435
UO-31 renal = system: UO-31 renal
A549 NSCLC = system: A549 NSCLC
SNB-19 CNS = system: SNB-19 CNS
SK-MEL-2 melanoma = system: SK-MEL-2 melanoma

Structure (SMILES): COC(=O)c1c([N+](=O)[O-])ncn1[C@H]1OC[C@@H](OC(C)=O)[C@@H](OC(C)=O)[C@@H]1OC(C)=O
- TGI (IGROV1 ovarian): > 100 µM
- TGI (CAKI-1 renal): > 100 µM
- TGI (MCF7 breast): > 100 µM
- TGI (MDA-MB-435): > 100 µM
- TGI (UO-31 renal): > 100 µM
- TGI (A549 NSCLC): > 100 µM
- TGI (SNB-19 CNS): > 100 µM

Structure (SMILES): O=C(Nc1ccccc1)c1cc(S(=O)(=O)Nc2n[nH]c(=O)n2-c2ccccc2)c(S)cc1Cl
- TGI (IGROV1 ovarian): > 100 µM
- TGI (CAKI-1 renal): > 100 µM
- TGI (MCF7 breast): > 100 µM
- TGI (MDA-MB-435): > 100 µM
- TGI (UO-31 renal): > 100 µM
- TGI (A549 NSCLC): > 100 µM
- TGI (SNB-19 CNS): > 100 µM
- TGI (SK-MEL-2 melanoma): > 100 µM

Structure (SMILES): CC1=C(C#N)C(=C(C#N)C#N)OC1(C)Cc1ccccc1 (stereo unspecified)
- TGI (IGROV1 ovarian): > 100 µM
- TGI (CAKI-1 renal): 50.9 µM
- TGI (MCF7 breast): > 100 µM
- TGI (MDA-MB-435): > 100 µM
- TGI (UO-31 renal): 37 µM
- TGI (A549 NSCLC): > 100 µM
- TGI (SNB-19 CNS): > 100 µM
- TGI (SK-MEL-2 melanoma): > 100 µM

Structure (SMILES): O=C(C=P(c1ccccc1)(c1ccccc1)c1ccccc1)c1ccc(-c2cccs2)cc1
- TGI (IGROV1 ovarian): 21.2 µM
- TGI (CAKI-1 renal): 19.6 µM
- TGI (MCF7 breast): 11.7 µM
- TGI (MDA-MB-435): 10.9 µM
- TGI (UO-31 renal): 14.4 µM
- TGI (A549 NSCLC): 11.6 µM
- TGI (SNB-19 CNS): 11.2 µM
- TGI (SK-MEL-2 melanoma): 3.11 µM

Structure (SMILES): O=C1C2C(C(=O)N1c1ccccc1)C1(c3ccccc3)CCC2(C(=O)c2ccccc2)O1 (stereo unspecified)
- TGI (IGROV1 ovarian): > 10 µM
- TGI (CAKI-1 renal): > 10 µM
- TGI (MCF7 breast): > 10 µM
- TGI (MDA-MB-435): > 10 µM
- TGI (UO-31 renal): > 10 µM
- TGI (A549 NSCLC): > 10 µM
- TGI (SNB-19 CNS): > 10 µM
- TGI (SK-MEL-2 melanoma): > 10 µM

Structure (SMILES): Cc1ccc2c(c1)SC1=Nc3sc4cc(C)ccc4[n+]3CN12
- TGI (IGROV1 ovarian): 34 µM
- TGI (MCF7 breast): > 100 µM
- TGI (MDA-MB-435): 20.2 µM
- TGI (UO-31 renal): > 100 µM
- TGI (A549 NSCLC): 67.1 µM
- TGI (SNB-19 CNS): 16.9 µM
- TGI (SK-MEL-2 melanoma): 17.8 µM

Structure (SMILES): CN=C1Nc2ccccc2C(=O)N2CSCC12 (stereo unspecified)
- TGI (IGROV1 ovarian): > 100 µM
- TGI (CAKI-1 renal): > 100 µM
- TGI (MCF7 breast): > 100 µM
- TGI (MDA-MB-435): > 100 µM
- TGI (UO-31 renal): > 100 µM
- TGI (A549 NSCLC): > 100 µM
- TGI (SNB-19 CNS): > 100 µM
- TGI (SK-MEL-2 melanoma): > 100 µM

Structure (SMILES): Cc1ccc2c(=O)cc(-c3sccc3C)[nH]c2n1
- TGI (IGROV1 ovarian): > 96 µM
- TGI (CAKI-1 renal): > 100 µM
- TGI (MCF7 breast): > 57.7 µM
- TGI (MDA-MB-435): > 100 µM
- TGI (UO-31 renal): 23.8 µM
- TGI (SNB-19 CNS): > 100 µM
- TGI (SK-MEL-2 melanoma): > 40 µM

Structure (SMILES): CC(=O)NC1C(OC(C)C(=O)NC(C)C(=O)NC(CCC(=O)NCCCCCNc2ccc([N+](=O)[O-])c3[nH]c4ccccc4c(=O)c23)C(N)=O)C(O)C(CO)OC1(C)OCc1ccccc1 (stereo unspecified)
- TGI (IGROV1 ovarian): > 100 µM
- TGI (CAKI-1 renal): > 100 µM
- TGI (MCF7 breast): > 100 µM
- TGI (MDA-MB-435): > 100 µM
- TGI (UO-31 renal): > 100 µM
- TGI (A549 NSCLC): > 100 µM
- TGI (SNB-19 CNS): > 100 µM
- TGI (SK-MEL-2 melanoma): > 100 µM

Structure (SMILES): CCCCN1C(=O)C2Cc3c([nH]c4ccccc34)C(c3cccc(O)c3)N2C1=O (stereo unspecified)
- TGI (IGROV1 ovarian): 31.3 µM
- TGI (CAKI-1 renal): 33.9 µM
- TGI (MCF7 breast): 36.2 µM
- TGI (MDA-MB-435): 32.4 µM
- TGI (UO-31 renal): 32.8 µM
- TGI (A549 NSCLC): 35 µM
- TGI (SNB-19 CNS): 34.6 µM
- TGI (SK-MEL-2 melanoma): 32.9 µM

Structure (SMILES): O=C(O)c1ccccc1C(=O)NCC1S(=O)(=O)OCCOS1(=O)=O
- TGI (IGROV1 ovarian): > 100 µM
- TGI (CAKI-1 renal): > 100 µM
- TGI (MCF7 breast): > 100 µM
- TGI (MDA-MB-435): > 100 µM
- TGI (UO-31 renal): > 100 µM
- TGI (A549 NSCLC): > 100 µM
- TGI (SNB-19 CNS): > 100 µM
- TGI (SK-MEL-2 melanoma): > 100 µM

Structure (SMILES): NC(=O)C1CCCN1C(=O)C(Cc1cnc[nH]1)NC(=O)C1CCCC1 (stereo unspecified)
- TGI (IGROV1 ovarian): > 100 µM
- TGI (CAKI-1 renal): > 100 µM
- TGI (MCF7 breast): > 100 µM
- TGI (MDA-MB-435): > 100 µM
- TGI (UO-31 renal): > 100 µM
- TGI (A549 NSCLC): > 100 µM
- TGI (SNB-19 CNS): > 100 µM

Structure (SMILES): Cc1ccc2c(c1)C(=C(C#N)C#N)CCCS2(=O)=O
- TGI (IGROV1 ovarian): > 100 µM
- TGI (CAKI-1 renal): > 100 µM
- TGI (MDA-MB-435): > 100 µM
- TGI (UO-31 renal): > 100 µM
- TGI (A549 NSCLC): > 100 µM
- TGI (SNB-19 CNS): > 100 µM
- TGI (SK-MEL-2 melanoma): > 100 µM

Structure (SMILES): O=C(Nc1ccc(C(F)(F)F)cc1)NC(F)(F)F
- TGI (IGROV1 ovarian): > 100 µM
- TGI (CAKI-1 renal): > 100 µM
- TGI (MDA-MB-435): > 100 µM
- TGI (UO-31 renal): > 100 µM
- TGI (A549 NSCLC): > 100 µM
- TGI (SNB-19 CNS): > 100 µM
- TGI (SK-MEL-2 melanoma): > 100 µM

Structure (SMILES): CC1=NN(c2cccc(Cl)c2)C2(SCC(=O)N2c2nc3ccccc3s2)C1=CC=Cc1ccccc1 (stereo unspecified)
- TGI (IGROV1 ovarian): > 100 µM
- TGI (CAKI-1 renal): > 100 µM
- TGI (MCF7 breast): > 100 µM
- TGI (MDA-MB-435): > 100 µM
- TGI (UO-31 renal): > 100 µM
- TGI (SK-MEL-2 melanoma): 59.8 µM

Structure (SMILES): COc1cccc(/C=N/n2c(Cc3ccccc3)n[nH]c2=O)c1
- TGI (CAKI-1 renal): > 100 µM
- TGI (MCF7 breast): > 100 µM
- TGI (MDA-MB-435): > 100 µM
- TGI (UO-31 renal): > 100 µM
- TGI (A549 NSCLC): > 100 µM
- TGI (SNB-19 CNS): > 100 µM
- TGI (SK-MEL-2 melanoma): > 100 µM

Structure (SMILES): C=CCOC(=O)CC[C@H](NC(=O)[C@@H](CCC(F)(F)F)Cc1ccc(O)cc1)C(=O)OCC=C
- TGI (IGROV1 ovarian): > 100 µM
- TGI (CAKI-1 renal): > 100 µM
- TGI (MCF7 breast): 48.2 µM
- TGI (MDA-MB-435): 76 µM
- TGI (UO-31 renal): > 100 µM
- TGI (A549 NSCLC): > 100 µM
- TGI (SNB-19 CNS): > 100 µM

Structure (SMILES): N#CC12C(=O)NC(=O)C1(C#N)C1C=CC2CC1 (stereo unspecified)
- TGI (CAKI-1 renal): > 100 µM
- TGI (MCF7 breast): > 100 µM
- TGI (MDA-MB-435): > 100 µM
- TGI (UO-31 renal): > 100 µM
- TGI (A549 NSCLC): > 100 µM
- TGI (SNB-19 CNS): > 100 µM

Structure (SMILES): CC(=O)c1nc2ccccc2n1C(C)C(=O)c1ccccc1 (stereo unspecified)
- TGI (IGROV1 ovarian): > 100 µM
- TGI (CAKI-1 renal): > 100 µM
- TGI (MCF7 breast): > 100 µM
- TGI (MDA-MB-435): > 100 µM
- TGI (UO-31 renal): > 100 µM
- TGI (A549 NSCLC): > 100 µM
- TGI (SNB-19 CNS): > 100 µM

Structure (SMILES): CC1=C(C(=O)OC2CC3CCC2(C)C3(C)C)C2Nc3ccccc3N(C)C2O1 (stereo unspecified)
- TGI (IGROV1 ovarian): 6.97 µM
- TGI (CAKI-1 renal): 10.5 µM
- TGI (MDA-MB-435): 3.13 µM
- TGI (UO-31 renal): 7.19 µM
- TGI (A549 NSCLC): 4.53 µM
- TGI (SNB-19 CNS): 10.1 µM
- TGI (SK-MEL-2 melanoma): 7.9 µM

Structure (SMILES): c1csc(-c2nn3c(C45CC6CC(CC(C6)C4)C5)nnc3s2)c1
- TGI (IGROV1 ovarian): > 100 µM
- TGI (CAKI-1 renal): > 100 µM
- TGI (MDA-MB-435): > 100 µM
- TGI (UO-31 renal): > 100 µM
- TGI (A549 NSCLC): > 100 µM
- TGI (SNB-19 CNS): > 100 µM
- TGI (SK-MEL-2 melanoma): > 100 µM

Structure (SMILES): CCOC1CN=C(Nc2cccc3ccccc23)S1 (stereo unspecified)
- TGI (IGROV1 ovarian): > 10 µM
- TGI (CAKI-1 renal): > 10 µM
- TGI (MCF7 breast): > 10 µM
- TGI (MDA-MB-435): > 10 µM
- TGI (A549 NSCLC): > 10 µM
- TGI (SNB-19 CNS): > 10 µM
- TGI (SK-MEL-2 melanoma): > 10 µM

Structure (SMILES): CC(C)C(NC(=O)OCC1c2ccccc2-c2ccccc21)C(=O)NC(CCC(=O)OC(C)(C)C)C(=O)OC(C)(C)C (stereo unspecified) (Fmoc-Val-Glu(OtBu)-OtBu; configuration not given here)
- TGI (IGROV1 ovarian): > 100 µM
- TGI (CAKI-1 renal): > 100 µM
- TGI (MCF7 breast): > 100 µM
- TGI (MDA-MB-435): > 100 µM
- TGI (UO-31 renal): > 100 µM
- TGI (A549 NSCLC): > 100 µM
- TGI (SNB-19 CNS): > 100 µM

Structure (SMILES): CC(=O)Nc1ccc2c3c(cc(O)c2c1)N(C(=O)CCCC(=O)N1CC(CCl)c2c1cc(O)c1cc(NC(C)=O)ccc21)CC3CCl (stereo unspecified)
- TGI (IGROV1 ovarian): > 100 µM
- TGI (CAKI-1 renal): 0.183 µM
- TGI (MDA-MB-435): 0.019 µM
- TGI (UO-31 renal): 0.0604 µM
- TGI (SK-MEL-2 melanoma): < 0.0152 µM

Structure (SMILES): O=c1oc2ccc3ccccc3c2cc1-c1nnc(Nc2ccccc2)s1
- TGI (CAKI-1 renal): > 100 µM
- TGI (MCF7 breast): > 100 µM
- TGI (MDA-MB-435): > 100 µM
- TGI (UO-31 renal): 39.4 µM
- TGI (A549 NSCLC): 59 µM
- TGI (SNB-19 CNS): 65.4 µM
- TGI (SK-MEL-2 melanoma): 34.7 µM

Structure (SMILES): Cc1c(C)c2ccc(OCC(O)COC(C)C)c(C)c2oc1=O (stereo unspecified)
- TGI (IGROV1 ovarian): > 100 µM
- TGI (CAKI-1 renal): > 100 µM
- TGI (MCF7 breast): 50.1 µM
- TGI (UO-31 renal): > 100 µM
- TGI (A549 NSCLC): > 100 µM
- TGI (SNB-19 CNS): > 100 µM
- TGI (SK-MEL-2 melanoma): 36.8 µM
